Experiment [1] concerns the target T1, OsG6PDH2 (Oryza sativa, UniProt Q7X7I6).
T1 construct: gene Os04g0485300; coding region in pET32 (N-terminal fusion, His-tag), E. coli SoluBL21, HisTrap purified
T1 sequence (Q7X7I6 1-505): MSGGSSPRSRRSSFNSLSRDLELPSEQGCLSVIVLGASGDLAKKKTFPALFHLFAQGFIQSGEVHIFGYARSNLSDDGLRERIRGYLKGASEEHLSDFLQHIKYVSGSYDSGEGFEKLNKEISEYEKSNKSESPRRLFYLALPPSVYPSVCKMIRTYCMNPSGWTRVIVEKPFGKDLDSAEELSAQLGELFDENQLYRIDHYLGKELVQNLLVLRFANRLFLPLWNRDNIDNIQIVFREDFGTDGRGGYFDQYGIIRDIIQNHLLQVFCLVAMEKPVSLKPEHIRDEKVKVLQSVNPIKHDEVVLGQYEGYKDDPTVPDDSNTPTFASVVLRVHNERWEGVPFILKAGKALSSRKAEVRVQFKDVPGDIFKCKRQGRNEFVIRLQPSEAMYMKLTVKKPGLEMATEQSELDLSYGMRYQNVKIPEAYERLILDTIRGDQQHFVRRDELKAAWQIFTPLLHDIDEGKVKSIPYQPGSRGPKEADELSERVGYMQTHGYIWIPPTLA
The experiment in a line: inhibition of G6PDH activity. Conditions: feedback (product) inhibition. The class given is biochemical.

Experiment [2] concerns the target T2, OsG6PDH1 (Oryza sativa, UniProt Q0DZS9).
T2 construct: gene Os02g0600400; coding region in pET32 (N-terminal fusion, His-tag), E. coli SoluBL21, HisTrap purified
T2 sequence (Q0DZS9 1-517): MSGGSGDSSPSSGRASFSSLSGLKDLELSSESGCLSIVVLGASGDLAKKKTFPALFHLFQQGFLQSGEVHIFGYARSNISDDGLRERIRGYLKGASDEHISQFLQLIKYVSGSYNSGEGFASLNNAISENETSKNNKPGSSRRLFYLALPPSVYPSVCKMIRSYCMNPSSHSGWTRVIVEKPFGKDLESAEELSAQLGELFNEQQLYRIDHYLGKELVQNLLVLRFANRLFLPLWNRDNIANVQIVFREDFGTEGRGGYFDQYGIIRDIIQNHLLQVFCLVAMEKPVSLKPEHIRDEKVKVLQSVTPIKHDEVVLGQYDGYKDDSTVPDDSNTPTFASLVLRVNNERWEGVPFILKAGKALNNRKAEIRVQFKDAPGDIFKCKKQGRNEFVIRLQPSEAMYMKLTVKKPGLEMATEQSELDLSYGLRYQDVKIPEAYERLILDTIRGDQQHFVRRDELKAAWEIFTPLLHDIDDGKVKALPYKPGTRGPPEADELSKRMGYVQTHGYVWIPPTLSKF
The experiment in a line: inhibition of G6PDH activity. It counts as biochemical. To be noted: feedback (product) inhibition.

Experiment [3] addresses T1, OsG6PDH2. Set-up: Recombinant G6PDH spectrophotometric assay at 340 nm with G6P, NADP+ reduction, 25 °C, pH 7.6. Conditions: feedback inhibition, G6P/NADP+ assay; inhibitor; read-out: Ki NADPH. Here is the method:
(§1) The activity of recombinant rice G6PDHs was measured spectrophotometrically (340nm) at 25 °C by detecting NADP reduction via G6PDH reaction, which is coupled with G6P production, as described by [Wakao and Benning (2005)]. Reaction mixtures with 0.01–10mM G6P contained 0.2M TRIS (pH 7.6), NADP^+ (0.01–10mM), and MgCl2 (5mM). DTT (10mM) was incubated with the reaction mixture for 1h to test its activity. The DNA fragment containing the coding region of OsHXK5, OsHXK6, AlsK, OsG6PDH1, or OsG6PDH2 was subcloned in-frame into the pET32 vector (Novagen), and overexpressed in E. coli SoluBL21 (Genlantis, San Diego, CA, USA) according to the manufacturer’s instructions. The recombinant proteins were purified using a HisTrap HP column (GE Healthcare, Wauwatosa, WI, USA) as per the manufacturer’s instructions and dialysed against 0.2M TRIS-HCl buffer (pH 7.6) containing MgCl2 (5mM). Recombinant proteins of OsG6PDH1 and OsG6PDH2 had enzymatic activity with G6P and NADP^+, and OsG6PDH1 had higher activity based on k cat/K m values (Table 2). […] Neither enzyme used A6P as a substrate (Supplementary Table S3).

Experiment [4] has as its target T2, OsG6PDH1. Further details: Recombinant G6PDH spectrophotometric assay at 340 nm with G6P, NADP+ reduction, 25 °C, pH 7.6. Conditions: feedback inhibition, G6P/NADP+ assay; inhibitor; read-out: Ki NADPH. On the procedure:
as §1

The values below come from article PMC3830479 (Journal of Experimental Botany, 2013).

pKi: −log10 of the molar value.

For the compound `NC(=O)C1=CN([C@@H]2O[C@H](COP(=O)(O)OP(=O)(O)OC[C@H]3O[C@@H](n4cnc5c(N)ncnc54)[C@H](OP(=O)(O)O)[C@@H]3O)[C@@H](O)[C@H]2O)C=CC1` [NADPH], the “inhibition of G6PDH activity” value against OsG6PDH2 [1] is “OsG6PDH1 and OsG6PDH2 suffered tight feedback inhibition by NADPH”; against OsG6PDH1 [2], “OsG6PDH1 and OsG6PDH2 suffered tight feedback inhibition by NADPH”. Further, the pKi at OsG6PDH2 [3] is 4.52; at OsG6PDH1 [4], 4.38.

One may read the pKi as −log10 of the Ki, conventionally taken in molar units.
